{
  "source": "ChEMBL document CHEMBL4706603",
  "about": "“Discovery of VEGFR-2 inhibitors exerting significant anticancer activity against CD44+ and CD133+ cancer stem cells (CSCs): Reversal of TGF-β induced epithelial-mesenchymal transition (EMT) in hepatocellular carcinoma” (Eur J Med Chem, 2020)",
  "key": {"HepG2": {"tested_on": "HepG2", "experiment": "Inhibition of epithelial-mesenchymal transition in TGF-beta-induced human HepG2 cells assessed as SNAIL expression at IC50 incubated for 48 hrs by flow cytometry analysis (reference value: 97.78 %)", "type": "functional", "set-up": "scale not given: the % may be the effect or the level left"}, "[1]": {"experiment": "Cmax in Wistar rat at 5 mg/kg, po measured upto 72 hrs by HPLC-MS analysis", "type": "ADME, organism-based", "set-up": "route oral, dose 5 mg/kg, time <=72", "conditions": "in vivo"}, "[2]": {"experiment": "Toxicity in Wistar rat assessed as effect on relative weight of lungs at 5 to 2000 mg/kg, po and measured on day 15", "type": "organism-based", "conditions": "in vivo, 360 h, dose 5-2000 mg/kg, time 15 day"}},
  "data": [
    {"smiles": "CC(=O)Nc1ccc(Oc2cccc3c(NC(=O)Nc4cccc(C(F)(F)F)c4)cccc23)cc1", "values": [
      {"measurement": "Activity", "setting": "HepG2", "result": 10.26, "unit": "%"},
      {"measurement": "Cmax", "setting": "[1]", "result": 39700, "unit": "ng/mL"},
      {"measurement": "Activity", "setting": "[2]", "result": "Non-Toxic"}
    ]}
  ]
}
